{
  "source": "patent US20250302817A1",
  "about": "“METHODS FOR TREATING PTEN-MUTANT TUMORS” (Icahn School of Medicine at Mount Sinai, priority 2016, published 2025)",
  "key": {"[1]": {"tested_on": "PI3K signaling", "assay": "Immunoblot of pAKT in Pten KO and WT cells", "type": "cell-based", "details": "50 μM A771726", "procedure": "Note that here as well as in FIG. 2, H-I, a large amount of DMSO was used in each condition to match the amount of orotate needed, narrowing the growth differential normally observed between leflunomide-treated and untreated cells in the PTEN mutant setting. FIG. 8B is a bar graph and immunoblot depicting cells transfected with siRNA against DHODH. The bar graph depicts cell viability measured using annexin V and 7AAD. 0.5 μg/mL actinomycin D was a positive control for cell death. (Students t-test, *p<0.05, n=3). […] FIG. 8C is an immunoblot of DHODH in Pten KO and WT cells. FIG. 8D is an immunoblot of pAKT in Pten KO and WT cells with or without treatment with 50 μM A771726. FIG. 8E and FIG. 8F are bar graphs depicting the GI50s of cells treated with dose titrations of 5-fluorouracil or mercaptopurine, respectively (Student's t-test, p>0.05, n=3). FIG. 8G depicts the confluence of prostate cells grown in media containing full glutamine (4 mM) or no added glutamine. Data shown as means±SD.\nSamples were lysed in 2× Laemelli sample buffer with mercaptoethanol and were boiled before separation by SDS-PAGE on Tris-Glycine gels (Invitrogen EC60352). Wet-transfer to PVDF (Fisher ipvh00010) was followed by blocking for 1 hour in 10% nonfat milk (Fisher M-0841) in TBST. […]"}, "[2]": {"tested_on": "MCCL-357 and MCCL-278 cells", "assay": "RPA and gamma-H2AX co-staining by flow cytometry", "type": "cell-based, mouse", "procedure": "FIG. 4A is a graph showing positively-stained cells labeled with a gamma-H2AX antibody; cells were analyzed by flow cytometry (Student's t-test, *p<0.05, n=3). […] The mean fluorescence intensity (MFI) was determined using flow cytometry (Student's t-test, *p<0.01, n=3). FIG. 4C is a series of representative photographs showing MEFs treated with 150 μM A771726 for 24 h and labeled with EdU and gamma-H2AX. Left: representative confocal microscopy images. Right: quantified EdU and gamma-H2AX colocalized foci (Student's t-test, *p<0.05, n=3). […] Left: representative confocal microscopy images. Right: quantification of the number of foci per cell (Student's t-test, p>0.05, n=6). FIG. 4E is a graph showing the percentage of cells treated with 150 μM A771726 for times indicated and labeled with antibodies to RPA and gamma-H2AX positively staining for RPA alone or both RPA and gamma-H2AX; cells were analyzed by flow cytometry (Student's t-test, *p<0.05, n=4). […] FIGS. 4G and 4H are graphs quantifying the number of chromosomal breaks and multiradial formations per haploid genome (Student's t-test, *p-values on figure, cells scored/replicate>100). […]\nFIG. 10D is a bar graph showing a quantitative depiction of the percent cell area with EdU-staining from images in FIG. 4D, used to normalize foci to cell size (Student's t-test, p>0.05, not significant, n=6). […] Cells were treated with A771726 for times indicated and co-stained with antibodies to RPA and gamma-H2AX; cells were analyzed by flow cytometry (n=4). […] FIG. 10H is a bar graph showing a quantitative depiction of the percent of abnormal […] in MCCL-278 and MCCL-357 breast cells treated with 50 or 100 μM A771726 or vehicle (Student's t-test, *p<0.01). […] Pulverized chromosomes could not be quantified due to the very high number of fragments.\nThe FlowCellect™ Cell Cycle Checkpoint H2A.X DNA Damage Kit (Millipore FCCH12542) was used according to the instructions provided in the kit. […] (Propidium iodide was not used in this setting.) Fluorescence was measured on a Guava® flow cytometer."}, "[3]": {"tested_on": "ATR phosphorylation of CHK1 at serine 345", "assay": "Immunoblot of pChk1", "type": "cell-based", "details": "150 μM A771726; Pten WT versus Pten^−/− cells"}, "[4]": {"details": "cited from earlier work"}, "[5]": {"tested_on": "BCRP transporter and organic anion transporting polypeptide 1B1 and 1B3 (OATP1B1/1B3)", "details": "repeated doses of teriflunomide; cited from earlier work"}, "[6]": {"molecular_target": "T1, CYP3A4 (Homo sapiens, UniProt P08684)", "T1 construct": "midazolam (a CYP3A4 substrate); host or cells: human subjects, in vivo", "T1 sequence (P08684 whole entry)": "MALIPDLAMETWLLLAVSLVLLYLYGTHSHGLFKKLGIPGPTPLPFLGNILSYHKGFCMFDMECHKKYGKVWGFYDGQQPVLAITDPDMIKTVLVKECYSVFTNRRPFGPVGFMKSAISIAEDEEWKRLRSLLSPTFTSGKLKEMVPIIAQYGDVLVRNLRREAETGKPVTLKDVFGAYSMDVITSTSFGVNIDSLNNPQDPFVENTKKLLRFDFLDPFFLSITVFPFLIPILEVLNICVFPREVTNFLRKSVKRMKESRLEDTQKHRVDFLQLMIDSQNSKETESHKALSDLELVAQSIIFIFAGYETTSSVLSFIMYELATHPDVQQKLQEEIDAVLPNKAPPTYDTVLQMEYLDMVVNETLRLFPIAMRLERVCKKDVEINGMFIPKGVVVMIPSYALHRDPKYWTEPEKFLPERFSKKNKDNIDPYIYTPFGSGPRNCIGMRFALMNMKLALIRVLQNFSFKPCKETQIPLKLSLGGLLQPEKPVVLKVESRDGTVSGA", "details": "in vivo; cited from earlier work"}, "[7]": {"details": "multiple sclerosis patients, cited from earlier work; for Alopecia / Arthralgia / Diarrhea / Headache / Nausea / Neutropenia / Parathesia: all grades"}},
  "note": "Like-named read-outs stand apart in the source and are kept apart here.",
  "data": [
    {"smiles": "C/C(O)=C(\\C#N)C(=O)Nc1ccc(C(F)(F)F)cc1", "note": "[teriflunomide, (Z)-2-Cyano-3-hydroxy-but-2-enoic acid-(4trifluoromethylphenyl)-amide]", "values": [
      {"measurement": "effect on PI3K signaling (pAKT immunoblot)", "setting": "[1]", "result": "did not affect PI3K signaling"},
      {"measurement": "RPA and gamma-H2AX double-positive cells", "setting": "[2]; 150 μM A771726, time course", "result": "shift toward both RPA and gamma-H2AX-positive cells in Pten^−/− MCCL-357 but not in Pten WT MCCL-278 cells"},
      {"measurement": "RPA signal", "setting": "[2]; 150 μM A771726, regardless of PTEN genotype", "result": "increase in RPA signal"},
      {"measurement": "gamma-H2AX in relation to RPA staining", "setting": "[2]; MCCL-357 cells treated with A771726", "result": "appeared almost exclusively in RPA-positive MCCL-357 cells"},
      {"measurement": "ATR phosphorylation of CHK1 at serine 345", "setting": "[3]", "result": "triggered ATR phosphorylation of CHK1 at serine 345 in Pten WT, but to a much lesser extent in Pten^−/− cells"},
      {"measurement": "free fraction of teriflunomide", "setting": "[4]; patients with chronic renal insufficiency on CAPD or hemodialysis", "result": "almost doubled"},
      {"measurement": "impact of CAPD or hemodialysis on circulating levels of teriflunomide", "setting": "[4]; single dose, patients (n=6) with chronic renal insufficiency", "result": "neither had a significant impact"},
      {"measurement": "increase in mean rosuvastatin AUC", "setting": "[5]", "result": 2.51, "unit": "fold"},
      {"measurement": "increase in mean rosuvastatin Cmax", "setting": "[5]", "result": 2.65, "unit": "fold"},
      {"measurement": "effect on pharmacokinetics of midazolam (a CYP3A4 substrate)", "setting": "[6]", "result": "does not affect the pharmacokinetics"},
      {"measurement": "Alopecia", "setting": "[7]; 7 mg/day (n = 1045)", "result": 10, "unit": "%"},
      {"measurement": "Arthralgia", "setting": "[7]; 7 mg/day (n = 1045)", "result": 8, "unit": "%"},
      {"measurement": "Diarrhea", "setting": "[7]; 7 mg/day (n = 1045)", "result": 13, "unit": "%"},
      {"measurement": "Headache", "setting": "[7]; 7 mg/day (n = 1045)", "result": 18, "unit": "%"},
      {"measurement": "Nausea", "setting": "[7]; 7 mg/day (n = 1045)", "result": 8, "unit": "%"},
      {"measurement": "Neutropenia", "setting": "[7]; 7 mg/day (n = 1045)", "result": 4, "unit": "%"},
      {"measurement": "Parathesia", "setting": "[7]; 7 mg/day (n = 1045)", "result": 8, "unit": "%"},
      {"measurement": "Elevated ALT, >3 × upper limit of normal", "setting": "[7]; 7 mg/day (n = 1045)", "result": 6, "unit": "%"},
      {"measurement": "Elevated ALT, serious adverse events leading to treatment withdrawal", "setting": "[7]; 7 mg/day (n = 1045)", "result": 3, "unit": "%"},
      {"measurement": "Hypertension (new onset)", "setting": "[7]; 7 mg/day (n = 1045)", "result": 3, "unit": "%"},
      {"measurement": "Peripheral Neuropathy, serious adverse events leading to treatment withdrawal", "setting": "[7]; 7 mg/day (n = 1045)", "result": 0.3, "unit": "%"},
      {"measurement": "Serious Infection", "setting": "[7]; 7 mg/day (n = 1045)", "result": 2, "unit": "%"},
      {"measurement": "Alopecia", "setting": "[7]; 14 mg/day (n = 1002)", "result": 13, "unit": "%"},
      {"measurement": "Arthralgia", "setting": "[7]; 14 mg/day (n = 1002)", "result": 6, "unit": "%"},
      {"measurement": "Diarrhea", "setting": "[7]; 14 mg/day (n = 1002)", "result": 14, "unit": "%"},
      {"measurement": "Headache", "setting": "[7]; 14 mg/day (n = 1002)", "result": 16, "unit": "%"},
      {"measurement": "Nausea", "setting": "[7]; 14 mg/day (n = 1002)", "result": 11, "unit": "%"},
      {"measurement": "Neutropenia", "setting": "[7]; 14 mg/day (n = 1002)", "result": 6, "unit": "%"},
      {"measurement": "Parathesia", "setting": "[7]; 14 mg/day (n = 1002)", "result": 9, "unit": "%"},
      {"measurement": "Elevated ALT, >3 × upper limit of normal", "setting": "[7]; 14 mg/day (n = 1002)", "result": 6, "unit": "%"},
      {"measurement": "Elevated ALT, serious adverse events leading to treatment withdrawal", "setting": "[7]; 14 mg/day (n = 1002)", "result": 3, "unit": "%"},
      {"measurement": "Hypertension (new onset)", "setting": "[7]; 14 mg/day (n = 1002)", "result": 4, "unit": "%"},
      {"measurement": "Peripheral Neuropathy, serious adverse events leading to treatment withdrawal", "setting": "[7]; 14 mg/day (n = 1002)", "result": 0.5, "unit": "%"},
      {"measurement": "Serious Infection", "setting": "[7]; 14 mg/day (n = 1002)", "result": 3, "unit": "%"}
    ]}
  ]
}
